The source of these data is patent US20080051381A1, “Suppression of estrus in mares by a single injection method” (priority 2006, published 2008).

Marks after values point to notes of the source that are not given here.

Series [1] relates to estrus and ovulation in mares. The settings on record: prior knowledge; cited from earlier work.
Series [2] concerns estrus and ovulation in light-horse mares. In words: Suppression of estrus and ovulation in mares after a single sustained release injection. The format is in vivo, mares (equine). The procedure:
Thirty one randomly selected light-horse mares are maintained on native pasture and ad libitum hay. Verification of normal reproductive cyclicity is determined by follicular ultrasound, teasing with a vigorous stallion, and radioimmunoassay of plasma progesterone concentrations. Mares displaying estrus (i.e. the estrus mare group) with plasma progesterone levels below 1 ng/mL are followed by ultrasound until a follicle 30 mm or greater is determined. When a follicle reaches 30 mm, 2 mL of 2000 IU human chorionic gonadotropin is administered to induce ovulation. Mares in the estrus group are subsequently followed by ultrasound until ovulation and corpus luteal formation are verified. Six days after ovulation is determined, mares in this group are given a 2 mL injection of dinoprost tromethamine and randomly assigned to a treatment regime set forth in Table 1.
Mares not displaying estrus (i.e. the non-estrus mare group) with progesterone concentrations above 1 ng/mL and the presence of a corpus luteum verified by ultrasound are given 2 mL dinoprost tromethamine. Once estrus is detected by teasing with a stallion, these mares are treated as the mares assigned to the estrus mare group. […]
The mares of each of the groups in Table 1 are followed via ultrasound every other day after treatment until a follicle 25 mm or greater is detected. […]
Injection site assessments are made on days 0, 1, 3, 6, and 9 post-treatment. […] Plasma concentrations of progesterone are measured with commercially available reagents (Diagnostic Systems Laboratories, Webster, Tex.). […] Data are analyzed by the Proc Mixed procedure of SAS (SAS Institute Inc., Cary, N.C.). Single point variables are analyzed via a one way ANOVA. Data from injection site scores are analyzed for effects of treatment, time, and treatment by time interactions with repeated measures. When a significant F is detected (P<0.05), the least significant difference (LSD) test is used to determine differences between groups within times.

The test system of series [3] is injection site swelling in mares. In words: Injection site assessment (swelling score 0-3) in mares. The class given is in vivo, mares (equine). The settings on record: compared to controls (FIG. 1). As for the experimental part: Injection site assessments are made on days 0, 1, 3, 6, and 9 post-treatment. Scores are based on a subjective scale of 0-3. Zero means no swelling; one means slight diameter swelling (i.e. about 12.5 mm); 2 means moderate diameter swelling (i.e. about 12.5 to 25 mm); and 3 means significant swelling (i.e. more than 25 mm). Plasma concentrations of progesterone are measured with commercially available reagents (Diagnostic Systems Laboratories, Webster, Tex.). Intra- and interassay CV and assay sensitivities are 5%, 8%, and 0.1 ng/mL. Data are analyzed by the Proc Mixed procedure of SAS (SAS Institute Inc., Cary, N.C.). Single point variables are analyzed via a one way ANOVA. Data from injection site scores are analyzed for effects of treatment, time, and treatment by time interactions with repeated measures. When a significant F is detected (P<0.05), the least significant difference (LSD) test is used to determine differences between groups within times.

For the compound `C=CC[C@]1(O)CC[C@H]2[C@@H]3CCC4=CC(=O)CCC4=C3C=C[C@@]21C` [Altrenogest, 17-α-Allyl-17-β-hydroxyoestra-4,9,11-trien-3-one], the “Effect on estrus and ovulation (background, in words)” value (“Effect on estrus and ovulation” for short) in series [1] is “suppress estrus and ovulation”.

As for `CC(=O)O[C@]1(C(C)=O)CC[C@H]2[C@@H]3C[C@H](C)C4=CC(=O)CC[C@]4(C)[C@H]3CC[C@@]21C` [Medroxyprogesterone, Medroxyprogesterone acetate], the “Effectiveness at delaying estrus and ovulation (in words)” value in series [2] (compared to controls) is reported as “not effective at delaying estrus or ovulation”. The Days to ovulation in series [2] (relative to administration of dinoprost tromethamine and treatment, mean ± SE) was 11.3 ± 2.14^a days. Also, the Days to estrus in series [2] (single injection on d0 together with 2 mL dinoprost tromethamine, mean ± SE) is reported as 6.2 ± 1.38^a days. The “Injection site swelling / biocompatibility (in words)” value in series [3] is listed as “most biocompatible formulation”. Also, in series [1], the “Effect on estrus and ovulation” value is “not to effect estrus, ovulation or pregnancy maintenance”.

For the compound `CC(=O)[C@H]1CC[C@H]2[C@@H]3CCC4=CC(=O)CC[C@]4(C)[C@H]3CC[C@]12C` [progesterone], the “Effect on estrus and ovulation” value in series [1] is “suppress estrus and ovulation”.
